These results are taken from US11384069B2, “Diphenylaminopyrimidine compound for inhibiting kinase activity” (Shenzhen TargetRx, Inc., priority 2018, dated 2022).

SMILES strings stand for the structures.

The test system of series [1] is BaF3-EpoR-JAK2/V617F cells. Nature of the series: Cytotoxicity assay, BaF3-EpoR-JAK2/V617F cells (CellTiter-Glo). The format is cell-based. The conditions noted are these: 72 h; 3 days incubation, 1 ng/ml IL-3, CellTiter-Glo. The procedure:
Assay method: 1. Preparation of cell plates. […] The cell plates were placed in a carbon dioxide incubator for overnight culture. 2. The test compounds were dissolved in DMSO and subjected to 3-fold gradient dilution, 9 compound concentrations were obtained in duplicate. 3. Treatments of Cells with Compounds. The compounds were transferred to cell plates, and the starting concentration of the compounds is 10 μM. The cell plates were incubated in a carbon dioxide incubator for 3 days. 4. Detection. A CellTiter-Glo reagent was added to the cell plates and incubated for 30 minutes at room temperature to stabilize the luminescence signal. Reading was obtained using a PerkinElmer Envision multi-label analyzer.
On the technique in general: ATP-based viability assays read luminescence as a measure of living cells.

A short description of series [2]: Metabolic stability evaluation, rat liver microsome experiment. It counts as in vitro ADME. Particulars: liver microsomes, pH 7.4, 1 μM compound, 0.5 mg/mL protein, 37° C.; for half-life at 1 μM: read-out: Rat liver microsome experiment t1/2. How it is done: (§1) Microsomal experiment: human liver microsomes: 0.5 mg/mL, Xenotech; rat liver microsomes: 0.5 mg/mL, Xenotech; mouse liver microsomes: 0.5 mg/mL, Xenotech; coenzyme (NADPH/NADH): 1 mM, Sigma Life Science; magnesium chloride: 5 mM, 100 mM phosphate buffer (pH 7.4).
(§2) Preparation of a stock solution: A certain amount of the powder of the example compounds was accurately weighed and dissolved in DMSO to a 5 mM concentration.
(§3) Preparation of phosphate buffer (100 mM, pH 7.4): 150 mL of a pre-prepared 0.5 M potassium dihydrogen phosphate and 700 mL of a pre-prepared 0.5 M dipotassium hydrogen phosphate were mixed. The mixture was then adjusted to pH 7.4 with a 0.5 M dipotassium hydrogen phosphate solution. The mixture was diluted 5-fold with ultrapure water before use, and magnesium chloride was added to obtain a phosphate buffer (100 mM) containing 100 mM potassium phosphate, 3.3 mM magnesium chloride, and a pH of 7.4.
(§4) A solution of NADPH regeneration system (containing 6.5 mM NADP, 16.5 mM G-6-P, 3 U/mL G-6-P D, 3.3 mM magnesium chloride) was prepared and placed on wet ice before use.
(§5) Preparation of a stop solution: an acetonitrile solution containing 50 ng/mL propranolol hydrochloride and 200 ng/mL tolbutamide (internal standard). 25057.5 μL of phosphate buffer (pH 7.4) was added into a 50 mL centrifuge tube, 812.5 μL of human liver microsomes, rat liver microsomes and mouse liver microsomes were then added into the 50 mL centrifuge tube, respectively, and the mixtures were mixed evenly to obtain liver microsome dilutions with a protein concentration of 0.625 mg/mL. Incubation of samples: The stock solutions of the corresponding compounds were diluted to 0.25 mM with an aqueous solution containing 70% acetonitrile, respectively, and used as working solutions ready for use. 398 μL of dilutions of human liver microsomes or rat liver microsomes or mouse liver microsome were added to 96-well incubation plates (N=2), and then 2 μL of 0.25 mM working solutions were added and mixed, respectively.
(§6) Determination of metabolic stability: 300 μL of a pre-cooled stop solution was added to each well of a 96-well deep well plate and placed on ice as a stop plate. The 96-well incubation plate and the NADPH regeneration system were placed in a 37° C. water bath, shaken at 100 rpm, and pre-incubated for 5 min. 80 μL of an incubation solution was taken from each well of the incubation plate and added to the stop plate, mixed evenly, and replenished with 20 μL of NADPH regeneration system solution as a 0 min sample. 80 μL of NADPH regeneration system solution was then added to each well of the incubation plate to start the reaction, and timing was started. […] 100 μL of the reaction solution was taken at 10, 30, and 90 min after reaction, respectively, added to the stop plate, and vortexed for 3 minutes to terminate the reaction. The stop plate was centrifuged for 10 min at 5000×g at 4° C. 100 μL of the supernatant was added to a 96-well plate to which 100 μL of distilled water was previously added, mixed evenly, and analyzed by LC-MS/MS.
(§7) Data analysis: The peak areas of the corresponding compounds and internal standard were detected by LC-MS/MS system, and the ratio of the peak areas of the compounds to the internal standard was calculated.

The nature of series [3]: Metabolic stability evaluation, human liver microsome experiment. The format is in vitro ADME. The conditions noted are these: liver microsomes, pH 7.4, 1 μM compound, 0.5 mg/mL protein, 37° C.; for half-life at 1 μM: read-out: Human liver microsome experiment t1/2. How it is done: as §1, §2, §3, §4, §5, §6, §7
For orientation: Liver microsomes are vesicles of endoplasmic reticulum, rich in cytochrome P450 enzymes.

Series [4] is described as follows: Metabolic stability evaluation, mouse liver microsome experiment. Particulars: liver microsomes, pH 7.4, 1 μM compound, 0.5 mg/mL protein, 37° C.; for half-life at 1 μM: read-out: Mouse liver microsome experiment t1/2. The format is in vitro ADME. How it is done:
as §1, §2, §3, §4, §5, §6, §7

Another series concerns BaF3-EpoR-JAK2 cells. Nature of the series: Cytotoxicity assay, BaF3-EpoR-JAK2 cells (CellTiter-Glo). It counts as cell-based. Particulars: 72 h; 3 days incubation, 1 ng/ml IL-3, CellTiter-Glo. The procedure:
The inhibitory effects of example compounds on the activity of BaF3-EpoR-JAK2 and BaF3-EpoR-JAK2/V617F cells were determined.
Materials and reagents: RPMI-1640 medium (GIBCO, Cat. No. A10491-01), fetal bovine serum (GIBCO, Cat. No. 10099-141), antibiotics (GIBCO, Cat. No. 10010-031), IL-3 (CST, Cat. No. 8923SF), phosphate buffer solution PBS (GIBCO, Cat. No. 10010-0312), penicillin-streptomycin (GIBCO, Cat. No. 15140-122);
Cell lines: BaF3-EpoR-JAK2 cells (Pharmaron), BaF3-EpoR-JAK2/V617F cells (Pharmaron), live cell assay kit CellTiter-Glo4 (Promega, Cat. No. G7572), 96-well black-wall clear flat-bottom cell culture plate (Corning, Cat. No. 3340).
Assay method: 1. Preparation of cell plates. BaF3-EpoR-JAK2 cells and BaF3-EpoR-JAK2/V617F cells were seeded in 96-well plates, respectively, and 1 ng/ml IL-3 was added to Ba/F3 cells. The cell plates were placed in a carbon dioxide incubator for overnight culture. 2. The test compounds were dissolved in DMSO and subjected to 3-fold gradient dilution, 9 compound concentrations were obtained in duplicate. 3. Treatments of Cells with Compounds. The compounds were transferred to cell plates, and the starting concentration of the compounds is 10 μM. The cell plates were incubated in a carbon dioxide incubator for 3 days. 4. Detection. A CellTiter-Glo reagent was added to the cell plates and incubated for 30 minutes at room temperature to stabilize the luminescence signal. Reading was obtained using a PerkinElmer Envision multi-label analyzer.

Series [5] in a line: Rat pharmacokinetic experiment. The format is in vivo. The conditions noted are these: male Sprague-Dawley rats, single dose 3 mg/kg intravenously, 10 mg/kg orally. How it is done: 6 male Sprague-Dawley rats (7-8 weeks old, and weighted approximately 210 g) were divided into 2 groups with 3 rats in each group. The rats were intravenously or orally administered a single dose of compound (3 mg/kg intravenously, 10 mg/kg orally) to compare pharmacokinetic differences.
The rats were raised on standard food and water. Fasting was started 16 hours before the test. The drug was dissolved with PEG400 and dimethyl sulfoxide. The blood samples were collected from eyelids at the time points of 0.083 hours, 0.25 hours, 0.5 hours, 1 hour, 2 hours, 4 hours, 6 hours, 8 hours, 12 hours, and 24 hours after administration.
Rats were briefly anesthetized after inhalation of diethyl ether and 300 μL of blood sample was collected from the eyelids into test tubes. There was 30 μL of 1% heparin salt solution in the test tube. Tubes were dried at 60° C. overnight before use. After the blood sample was collected at the last time point, the rats were sacrificed after ether anesthesia.
Immediately after the collection of the blood sample, the test tube was gently inverted at least 5 times to ensure sufficient mixing and then placed on ice. […] The concentration of the compound disclosed herein in plasma was determined by LC-MS/MS. The pharmacokinetic parameters were calculated based on the drug concentration in blood of each animal at different time points.

Take `[2H]C([2H])(Oc1ccc(Nc2ncc(C)c(Nc3cccc(S(=O)(=O)NC(C)(C)C)c3)n2)cc1)C([2H])([2H])N1CCCC1` [Compound T-1, N-(tert-butyl)-3-((5-methyl-2-((4-(2-(pyrrolidin-1-yl)ethoxy-1,1,2,2-d4)phenyl)amino)pyrimidin-4-yl)amino)benzenesulfonamide]: the figures for the IC50 (in series [1]; in the series with BaF3-EpoR-JAK2 cells) were 206 nM and 536 nM, respectively. For the same molecule, the microsomal CLint (commonly the capacity of the preparation to metabolise the compound, expressed as a volume cleared per time) at 1 μM turned out to be 73.9 µL/min/mg in series [2], 6.8 µL/min/mg in series [3] and 157 µL/min/mg in series [4]. In addition, the half-life at 1 μM in series [2] was 18.7 min; in series [3], 203 min; in series [4], 8.8 min.

As for `[2H]c1nc(Nc2ccc(OCCN3CCCC3)cc2)nc(Nc2cccc(S(=O)(=O)NC(C)(C)C)c2)c1C([2H])([2H])[2H]` [Compound T-2, N-(tert-butyl)-3-((5-(methyl-d3)-2-((4-(2-(pyrrolidin-1-yl)ethoxy)phenyl)amino)pyrimidin-4-yl-6-d)amino)benzenesulfonamide], inhibition in series [1] was half-maximal at 196 nM (IC50). In series [4], the microsomal CLint at 1 μM was determined as 174 µL/min/mg and the half-life at 1 μM was found to be 8 min. Moreover, the IC50 – broadly, the concentration that inhibits the measured activity by half – in the series with BaF3-EpoR-JAK2 cells was 725 nM.

For the molecule `[2H]C([2H])([2H])C(C)(NS(=O)(=O)c1cccc(Nc2nc(Nc3ccc(OCCN4CCCC4)cc3)ncc2C)c1)C([2H])([2H])[2H]` [Compound T-3, 3-((5-methyl-2-((4-(2-(pyrrolidin-1-yl)ethoxy)phenyl)amino)pyrimidin-4-yl)amino)-N-(2-methylpropan-2-yl-1,1,1,3,3,3-d6)benzenesulfonamide], the IC50 in series [1] was determined as 244 nM; in the series with BaF3-EpoR-JAK2 cells, 604 nM. The microsomal CLint at 1 μM in series [2] was determined as 80.4 µL/min/mg; in series [4] it was 206 µL/min/mg. Further, the figures for the half-life at 1 μM in series [2] and in series [4] were 17.2 min and 6.7 min, respectively.

Take `[2H]C([2H])([2H])C(NS(=O)(=O)c1cccc(Nc2nc(Nc3ccc(OCCN4CCCC4)cc3)ncc2C)c1)(C([2H])([2H])[2H])C([2H])([2H])[2H]` [Compound T-4, 3-((5-methyl-2-((4-(2-(pyrrolidin-1-yl)ethoxy)phenyl)amino)pyrimidin-4-yl)amino)-N-(2-(methyl-d3)propan-2-yl-1,1,1,3,3,3-d6)benzenesulfonamide]: the results for the IC50 (in series [1]; with BaF3-EpoR-JAK2 cells) were 238 nM and 587 nM, respectively. Besides, the microsomal CLint at 1 μM in series [2] stood at 76.6 µL/min/mg; in series [4], 194 µL/min/mg. In addition, the half-life at 1 μM in series [2] came out at 18.1 min; in series [4] it was 7.1 min.

For `[2H]C1([2H])N(CCOc2ccc(Nc3ncc(C)c(Nc4cccc(S(=O)(=O)NC(C)(C)C)c4)n3)cc2)C([2H])([2H])C([2H])([2H])C1([2H])[2H]` [Compound T-5, N-(tert-butyl)-3-((5-methyl-2-((4-(2-(pyrrolidin-1-yl-d8)ethoxy)phenyl)amino)pyrimidin-4-yl)amino)benzenesulfonamide], the results for the IC50 (in series [1]; in the series on BaF3-EpoR-JAK2 cells) were 269 nM and 690 nM, respectively. Besides, the figures for the microsomal CLint at 1 μM in series [2], in series [3] and in series [4] were 77 µL/min/mg, 11.5 µL/min/mg and 158 µL/min/mg, respectively. Also, the figures for the half-life at 1 μM in series [2], in series [3] and in series [4] were 18 min, 121 min and 8.8 min, respectively. This molecule also showed an Oral availability in series [5] of 7.48%.

In the case of `Cc1cnc(Nc2ccc(OCCN3CCCC3)cc2)nc1Nc1cccc(S(=O)(=O)NC(C)(C)C)c1` [Fedratinib, N-(tert-butyl)-3-((5-methyl-2-((4-(2-(pyrrolidin-1-yl)ethoxy)phenyl)amino)pyrimidin-4-yl)amino)benzenesulfonamide, reference compound], the figures for the half-maximal inhibitory concentration (IC50) (in series [1]; in the series on BaF3-EpoR-JAK2 cells) were 211 nM and 653 nM, respectively. Also, the microsomal CLint at 1 μM in series [2] worked out at 81.3 µL/min/mg; in series [3], 12.5 µL/min/mg; in series [4], 238 µL/min/mg. In addition, the half-life at 1 μM in series [2] stood at 17 min; in series [3] it was 111 min; in series [4] it was 5.8 min. Besides, the Oral availability in series [5] turned out to be 7.24%.
